According to ChEMBL document CHEMBL1828590 (J Med Chem, 2011):

Key:
Histone deacetylase 8 = molecular target: T1, Histone deacetylase 8 (Homo sapiens, UniProt Q9BY41)
T1 sequence (Q9BY41 whole entry): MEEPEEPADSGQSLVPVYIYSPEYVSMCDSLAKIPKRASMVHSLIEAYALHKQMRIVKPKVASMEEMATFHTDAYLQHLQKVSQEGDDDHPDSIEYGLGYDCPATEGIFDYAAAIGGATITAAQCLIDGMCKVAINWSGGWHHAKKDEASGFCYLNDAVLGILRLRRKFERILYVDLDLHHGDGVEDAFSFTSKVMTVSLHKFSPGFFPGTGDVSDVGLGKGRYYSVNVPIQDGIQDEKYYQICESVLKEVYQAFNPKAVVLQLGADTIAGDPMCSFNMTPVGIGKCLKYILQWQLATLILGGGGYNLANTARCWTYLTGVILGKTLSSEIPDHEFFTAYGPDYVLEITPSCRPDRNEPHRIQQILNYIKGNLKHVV
Description: Competitive inhibition of HDAC8 using KI-104 as substrate by fluorescence assay

Histone deacetylase 11 = molecular target: T2, Histone deacetylase 11 (Homo sapiens, UniProt Q96DB2)
T2 sequence (Q96DB2 whole entry): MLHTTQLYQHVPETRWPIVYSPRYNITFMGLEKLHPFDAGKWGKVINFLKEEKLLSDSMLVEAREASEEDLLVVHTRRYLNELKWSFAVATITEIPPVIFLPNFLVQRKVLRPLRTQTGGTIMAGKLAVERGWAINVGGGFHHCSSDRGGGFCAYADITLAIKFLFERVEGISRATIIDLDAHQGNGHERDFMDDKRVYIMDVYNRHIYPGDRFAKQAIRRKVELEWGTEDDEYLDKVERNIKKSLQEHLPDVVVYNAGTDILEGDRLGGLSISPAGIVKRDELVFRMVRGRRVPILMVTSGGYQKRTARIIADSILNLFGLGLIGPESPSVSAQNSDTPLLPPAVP
Description: Competitive inhibition of HDAC11 using KI-104 as substrate by fluorescence assay

Cytochrome P450 3A4 [1] = molecular target: T3, Cytochrome P450 3A4 (Homo sapiens, UniProt P08684); assay: Inhibition of recombinant CYP3A4 after 30 mins by fluorescence assay; assay type: ADME
T3 sequence (P08684 whole entry): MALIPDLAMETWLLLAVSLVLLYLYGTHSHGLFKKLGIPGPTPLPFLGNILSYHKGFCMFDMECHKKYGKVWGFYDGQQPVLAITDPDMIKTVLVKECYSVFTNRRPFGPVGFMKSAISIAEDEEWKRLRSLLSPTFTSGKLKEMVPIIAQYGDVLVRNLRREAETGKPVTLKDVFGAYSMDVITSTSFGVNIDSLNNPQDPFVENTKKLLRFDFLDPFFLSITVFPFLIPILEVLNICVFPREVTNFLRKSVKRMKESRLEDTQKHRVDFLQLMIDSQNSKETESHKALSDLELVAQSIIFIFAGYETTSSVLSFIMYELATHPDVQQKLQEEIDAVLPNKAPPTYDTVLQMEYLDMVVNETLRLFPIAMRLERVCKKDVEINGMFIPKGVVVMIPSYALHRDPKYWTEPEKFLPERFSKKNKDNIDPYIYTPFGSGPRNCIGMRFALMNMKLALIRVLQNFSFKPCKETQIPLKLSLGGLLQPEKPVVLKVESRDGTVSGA

Histone deacetylase 1 = Histone deacetylase 1 (Homo sapiens, UniProt Q13547)
Chain of Histone deacetylase 1 (Q13547 whole entry): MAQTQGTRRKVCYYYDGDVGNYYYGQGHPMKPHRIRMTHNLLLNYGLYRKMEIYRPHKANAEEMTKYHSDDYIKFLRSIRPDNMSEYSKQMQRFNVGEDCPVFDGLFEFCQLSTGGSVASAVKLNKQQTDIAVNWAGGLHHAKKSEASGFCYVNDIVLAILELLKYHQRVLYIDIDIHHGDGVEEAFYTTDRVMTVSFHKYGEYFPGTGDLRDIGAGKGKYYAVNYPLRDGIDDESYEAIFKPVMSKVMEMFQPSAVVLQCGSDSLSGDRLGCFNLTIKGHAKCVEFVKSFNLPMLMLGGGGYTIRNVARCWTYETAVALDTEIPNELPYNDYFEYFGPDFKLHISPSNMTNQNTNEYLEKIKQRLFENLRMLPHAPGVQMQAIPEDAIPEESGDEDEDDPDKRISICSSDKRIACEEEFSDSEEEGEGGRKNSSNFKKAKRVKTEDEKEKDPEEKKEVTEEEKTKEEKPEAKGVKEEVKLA
Description: Inhibition of full length recombinant HDAC1 using Fluor de Lys as substrate by fluorescence assay

Cytochrome P450 2C9 = Cytochrome P450 2C9 (Homo sapiens, UniProt P11712); assay: Inhibition of CYP2C9 in human liver microsomes by fluorescence assay; assay type: ADME, Microsome
Chain of Cytochrome P450 2C9 (P11712 whole entry): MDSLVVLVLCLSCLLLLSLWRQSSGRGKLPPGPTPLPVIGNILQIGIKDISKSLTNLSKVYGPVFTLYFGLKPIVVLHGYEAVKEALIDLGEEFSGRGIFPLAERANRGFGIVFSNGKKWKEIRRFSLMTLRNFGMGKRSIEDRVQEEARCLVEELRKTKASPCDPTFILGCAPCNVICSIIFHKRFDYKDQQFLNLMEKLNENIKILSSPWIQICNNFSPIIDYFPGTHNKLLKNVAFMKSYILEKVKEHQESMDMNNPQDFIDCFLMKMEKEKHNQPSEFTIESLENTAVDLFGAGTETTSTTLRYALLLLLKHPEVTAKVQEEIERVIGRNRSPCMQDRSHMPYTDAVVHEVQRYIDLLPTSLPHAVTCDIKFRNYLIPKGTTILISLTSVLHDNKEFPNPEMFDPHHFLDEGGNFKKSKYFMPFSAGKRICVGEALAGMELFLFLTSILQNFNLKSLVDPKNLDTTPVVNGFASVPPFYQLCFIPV

A2780 = assay: Antiproliferative activity against human A2780 cells after 96 hrs by celltiter 96 assay; assay type: functional, cell-based; settings: A2780, 96 h
Histone deacetylase 3 = Histone deacetylase 3 (Homo sapiens, UniProt O15379)
Chain of Histone deacetylase 3 (O15379 whole entry): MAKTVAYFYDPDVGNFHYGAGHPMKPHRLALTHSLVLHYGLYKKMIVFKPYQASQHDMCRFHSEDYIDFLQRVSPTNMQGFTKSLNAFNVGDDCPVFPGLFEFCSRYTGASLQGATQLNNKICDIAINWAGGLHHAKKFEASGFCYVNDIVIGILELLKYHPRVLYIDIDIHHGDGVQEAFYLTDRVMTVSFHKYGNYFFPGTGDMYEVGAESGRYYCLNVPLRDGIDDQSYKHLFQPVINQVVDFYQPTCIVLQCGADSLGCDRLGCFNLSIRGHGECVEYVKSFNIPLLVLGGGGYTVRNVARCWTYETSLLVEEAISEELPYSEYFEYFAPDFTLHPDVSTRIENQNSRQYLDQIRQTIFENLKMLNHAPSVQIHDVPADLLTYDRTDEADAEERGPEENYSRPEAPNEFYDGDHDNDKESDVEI
Description: Competitive inhibition of HDAC3 using KI-104 as substrate by fluorescence assay

[2] = molecular target: T4, Protein deacetylase HDAC6 (Homo sapiens, UniProt Q9UBN7)
T4 sequence (Q9UBN7 whole entry): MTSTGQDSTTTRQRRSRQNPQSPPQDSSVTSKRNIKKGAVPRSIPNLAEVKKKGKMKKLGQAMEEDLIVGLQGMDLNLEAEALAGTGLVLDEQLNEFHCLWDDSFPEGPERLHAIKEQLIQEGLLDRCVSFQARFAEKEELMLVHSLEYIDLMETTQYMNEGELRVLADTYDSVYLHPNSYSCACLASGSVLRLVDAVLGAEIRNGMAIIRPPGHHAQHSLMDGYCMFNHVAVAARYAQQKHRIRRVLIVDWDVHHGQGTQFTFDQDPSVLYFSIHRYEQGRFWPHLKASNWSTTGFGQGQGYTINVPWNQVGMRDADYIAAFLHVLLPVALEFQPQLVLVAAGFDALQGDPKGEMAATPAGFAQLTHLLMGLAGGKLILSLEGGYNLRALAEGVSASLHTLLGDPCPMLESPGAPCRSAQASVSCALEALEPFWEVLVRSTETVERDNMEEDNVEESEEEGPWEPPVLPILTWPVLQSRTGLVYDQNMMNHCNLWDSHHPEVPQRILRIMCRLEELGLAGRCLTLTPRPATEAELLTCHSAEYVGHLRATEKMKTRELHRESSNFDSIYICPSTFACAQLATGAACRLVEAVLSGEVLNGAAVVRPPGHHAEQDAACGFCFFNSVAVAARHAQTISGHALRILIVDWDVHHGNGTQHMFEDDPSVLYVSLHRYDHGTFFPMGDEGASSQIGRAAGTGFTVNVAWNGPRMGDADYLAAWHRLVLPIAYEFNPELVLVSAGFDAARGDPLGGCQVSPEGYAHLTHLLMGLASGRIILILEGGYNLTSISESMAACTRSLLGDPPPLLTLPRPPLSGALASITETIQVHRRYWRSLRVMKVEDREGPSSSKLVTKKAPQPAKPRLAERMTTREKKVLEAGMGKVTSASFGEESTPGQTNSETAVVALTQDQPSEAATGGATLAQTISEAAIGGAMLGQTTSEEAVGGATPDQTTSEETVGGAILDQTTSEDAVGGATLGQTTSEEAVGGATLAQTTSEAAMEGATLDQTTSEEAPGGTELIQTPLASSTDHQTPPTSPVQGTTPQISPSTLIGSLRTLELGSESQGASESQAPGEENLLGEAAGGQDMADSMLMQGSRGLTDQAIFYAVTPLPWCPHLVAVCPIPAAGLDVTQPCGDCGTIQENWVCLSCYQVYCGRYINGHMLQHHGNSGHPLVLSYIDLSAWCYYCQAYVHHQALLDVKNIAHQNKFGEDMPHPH
Description: Competitive inhibition of HDAC6 using KI-104 as substrate by fluorescence assay

Histone deacetylase 9 = Histone deacetylase 9 (Homo sapiens, UniProt Q9UKV0)
Chain of Histone deacetylase 9 (Q9UKV0 whole entry): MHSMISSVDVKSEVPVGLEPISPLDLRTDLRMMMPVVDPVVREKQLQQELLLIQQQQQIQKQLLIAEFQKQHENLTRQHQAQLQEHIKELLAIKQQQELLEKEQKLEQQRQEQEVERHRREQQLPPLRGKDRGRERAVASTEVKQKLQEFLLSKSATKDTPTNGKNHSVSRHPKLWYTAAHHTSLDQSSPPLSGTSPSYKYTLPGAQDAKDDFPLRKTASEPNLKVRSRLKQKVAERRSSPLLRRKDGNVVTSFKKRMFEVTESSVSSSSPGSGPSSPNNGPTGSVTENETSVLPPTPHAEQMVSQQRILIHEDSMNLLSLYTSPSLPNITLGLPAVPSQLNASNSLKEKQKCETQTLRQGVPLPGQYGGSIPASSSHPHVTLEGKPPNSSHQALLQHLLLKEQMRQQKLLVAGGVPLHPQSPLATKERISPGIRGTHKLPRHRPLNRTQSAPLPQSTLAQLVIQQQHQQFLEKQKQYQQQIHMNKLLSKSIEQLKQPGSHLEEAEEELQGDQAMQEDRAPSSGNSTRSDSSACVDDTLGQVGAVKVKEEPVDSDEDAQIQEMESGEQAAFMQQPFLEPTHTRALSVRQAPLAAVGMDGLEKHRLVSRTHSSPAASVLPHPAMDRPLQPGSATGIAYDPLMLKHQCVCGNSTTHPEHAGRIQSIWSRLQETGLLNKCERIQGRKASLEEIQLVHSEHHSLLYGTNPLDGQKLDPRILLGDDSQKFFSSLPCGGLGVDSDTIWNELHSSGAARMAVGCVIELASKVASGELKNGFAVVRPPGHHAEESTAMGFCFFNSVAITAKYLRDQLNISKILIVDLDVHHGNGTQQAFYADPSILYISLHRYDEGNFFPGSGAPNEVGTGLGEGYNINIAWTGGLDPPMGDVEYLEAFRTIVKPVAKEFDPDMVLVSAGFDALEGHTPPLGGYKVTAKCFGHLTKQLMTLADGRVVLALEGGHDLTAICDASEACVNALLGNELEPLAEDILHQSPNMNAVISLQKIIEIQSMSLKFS
Description: Competitive inhibition of HDAC9 using KI-104 as substrate by fluorescence assay

Cytochrome P450 2D6 = Cytochrome P450 2D6 (Homo sapiens, UniProt P10635); assay: Inhibition of CYP2D6 in human liver microsomes by fluorescence assay; assay type: ADME, Microsome
Chain of Cytochrome P450 2D6 (P10635 whole entry): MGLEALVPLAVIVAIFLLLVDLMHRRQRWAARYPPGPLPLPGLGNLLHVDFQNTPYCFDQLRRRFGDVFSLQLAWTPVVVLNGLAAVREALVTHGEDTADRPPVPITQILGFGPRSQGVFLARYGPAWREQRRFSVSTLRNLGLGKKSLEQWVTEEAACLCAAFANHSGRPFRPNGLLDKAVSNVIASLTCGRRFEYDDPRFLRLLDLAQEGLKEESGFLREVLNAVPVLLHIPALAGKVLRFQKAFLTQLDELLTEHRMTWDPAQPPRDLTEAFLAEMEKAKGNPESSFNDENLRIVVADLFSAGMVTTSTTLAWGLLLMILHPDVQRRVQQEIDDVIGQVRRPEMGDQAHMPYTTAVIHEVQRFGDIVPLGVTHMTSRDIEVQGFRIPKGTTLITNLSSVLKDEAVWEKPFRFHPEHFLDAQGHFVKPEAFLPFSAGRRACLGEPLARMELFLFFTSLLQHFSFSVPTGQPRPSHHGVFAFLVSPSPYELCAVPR

[3] = Toxicity in po dosed athymic nu/nu Harlan mouse with xenografted human HCT116 cells assessed as maximum tolerated administered qd for 21 days; assay type: organism-based, HCT-116; settings: in vivo
Cytochrome P450 3A4 [4] = molecular target: T3, Cytochrome P450 3A4; assay: Inhibition of CYP3A4 in human liver microsomes
Mus musculus [5] = assay: Toxicity in nude BALB/c mouse xenografted with human MV4-11 cells assessed as maximum body weight loss at 25 mg/kg, po QD for 21 days measured on day 10; assay type: organism-based; design: dose 25 mg/kg, route oral; settings: in vivo, 504 h
HCT-116 = assay: Antitumor activity against human HCT116 cells xenografted in nude BALB/c mouse assessed as tumor growth inhibition at 50 mg/kg, po qd for 21 days; assay type: functional; settings: HCT-116, 504 h, read-out: TGI
[6] = Oral bioavailability in nude BALB/c mouse at 50 mg/kg; assay type: ADME, organism-based; settings: in vivo
[7] = Oral bioavailability in Beagle dog at 10 mg/kg; assay type: ADME, organism-based, Canis lupus familiaris; settings: in vivo
[8] = Half life in human liver microsomes; assay type: ADME, Microsome
[9] = Oral bioavailability in Wistar rat at 10 mg/kg; assay type: ADME, organism-based; settings: in vivo
Mus musculus [10] = assay: Toxicity in nude BALB/c mouse xenografted with human HCT116 cells assessed as mouse survival at 200 mg/kg, po QD for 21 days measured on day 22; assay type: organism-based, HCT-116; design: dose 200 mg/kg, route oral; settings: in vivo, 504 h
Mus musculus [11] = assay: Toxicity in nude BALB/c mouse xenografted with human A2780 cells assessed as maximum body weight loss at 100 mg/kg, po QD for 21 days measured on day 20; assay type: organism-based; design: dose 100 mg/kg, route oral; settings: in vivo, 504 h

Structure (SMILES) | Ki (Histone deacetylase 8) [nM] | Ki (Histone deacetylase 11) [nM] | IC50 (Cytochrome P450 3A4 [1]) [nM] | IC50 (Histone deacetylase 1) [nM] | IC50 (Cytochrome P450 2C9) [nM] | IC50 (A2780) [nM] | Ki (Histone deacetylase 3) [nM] | Ki [2] [nM] | Ki (Histone deacetylase 9) [nM] | IC50 (Cytochrome P450 2D6) [nM] | MTD at 504 h [3] [mg/kg] | IC50 (Cytochrome P450 3A4 [4]) [nM] | Activity (Mus musculus [5]) [%] | inhibition in vivo at 50 mg/kg (HCT-116) [%] | bioavailability [6] [%] | bioavailability [7] [%] | half-life [8] [h] | bioavailability [9] [%] | Activity (Mus musculus [10]) | Activity (Mus musculus [11]) [%]
CCCCCCc1nc2cc(/C=C/C(=O)NO)ccc2n1CCN(C)C | 136 | 11 | 330 | 28 | 10400 | 230 | 20 | 300 | 11 | > 25000 | 200 | > 25000 |  |  |  |  |  |  |  | 
CCCCc1nc2cc(/C=C/C(=O)NO)ccc2n1CCN(CC)CC.Cl.Cl |  | 24 |  |  | > 25000 | 480 |  | 247 | 24 | > 25000 | 50 |  | 10 | 66 | 34 | 65 | > 1 | 3.1 | Toxic | 20
CN(C)CC(C)(C)Cn1c(CC(C)(C)C)nc2cc(/C=C/C(=O)NO)ccc21 | 65 | 14 | 2280 | 46 | > 25000 | 440 | 20 | 94 | 11 | 13900 |  | > 25000 |  |  | 51 | 110 |  | 4 |  | 
